Counter-ions that a name gives are not always drawn.

Sequence of GST tagged IRAK4 (Q9NWZ3 whole entry): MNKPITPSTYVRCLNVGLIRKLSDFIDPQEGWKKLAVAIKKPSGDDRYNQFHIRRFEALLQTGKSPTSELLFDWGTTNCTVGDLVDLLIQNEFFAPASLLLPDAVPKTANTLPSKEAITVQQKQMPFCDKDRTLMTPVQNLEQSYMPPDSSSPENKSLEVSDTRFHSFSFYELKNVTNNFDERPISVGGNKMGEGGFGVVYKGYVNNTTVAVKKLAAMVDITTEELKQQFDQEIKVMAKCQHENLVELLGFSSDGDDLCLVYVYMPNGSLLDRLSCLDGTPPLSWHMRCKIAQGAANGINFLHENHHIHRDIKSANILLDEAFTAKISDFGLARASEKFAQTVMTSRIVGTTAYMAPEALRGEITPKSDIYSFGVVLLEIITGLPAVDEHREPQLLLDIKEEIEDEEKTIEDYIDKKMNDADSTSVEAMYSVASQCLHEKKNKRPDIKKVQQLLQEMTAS

This experiment addresses GST tagged IRAK4 (Homo sapiens (Human), UniProt Q9NWZ3). As to the kind of experiment: IRAK4 Kinase Assay (IMAP fluorescence polarization). Particulars: 0.5 nM GST tagged IRAK4, 100 μM ATP, 30 minutes at 25° C. The experiment is classed as biochemical. On the procedure:
The kinase activity of IRAK4 is determined by its ability to catalyze the phosphorylation of a fluorescent polypeptide substrate. The extent of phosphorylation is measured using the IMAP technology (Molecular Devices) where the phosphorylated fluorescent substrate binds to the large M(III)-based nanoparticles which reduces the rotational speed of the substrate and thus increases its fluorescent polarization (FP).
20 μL reaction mixture contains 10 mM TriHCl, pH 7.2, 0.5 nM GST tagged IRAK4 (SignalChem), 100 nM fluorescent peptide substrate (RP7030, Molecular Devices), 100 μM ATP, 1 mM DDT, 1 mM MgCl2, and 0.01% Tween 20. The reaction is initiated by the addition of ATP. After incubation for 30 minutes at 25° C., 60 μL of Progressive IMAP Reagent (Molecular Devices) is added to stop the reaction. Change in RP7030's FP is determined by a FP reader (Analyst HT, LJL BioSystems).
The molecule `Cn1cc(NC(=O)c2ccc3cnc(N[C@H]4CNC[C@@H](F)C4)nn23)c(C(F)(F)F)n1` [Example 160, 2-{[(3R,5S)-5-fluoropiperidin-3-yl]amino}-N-[1-methyl-3-(trifluoromethyl)-1H-pyrazol-4-yl]pyrrolo[2,1-f][1,2,4]triazine-7-carboxamide] showed an IC50 of 9 nM.

`Cn1cc(NC(=O)c2ccc3cnc(N4C[C@@H]5CC[C@H]4CN5)nn23)c(Cl)n1` (single isomer, unassigned) [Example 44, N-(3-chloro-1-methyl-1H-pyrazol-4-yl)-2-[(1S,4S)- or (1R,4R)-2,5-diazabicyclo[2.2.2]oct-2-yl]pyrrolo[2,1-f][1,2,4]triazine-7-carboxamide trifluoroacetate] registered a half-inhibitory concentration (IC50) of 125 nM.

`Cn1cc(NC(=O)c2ccc3cnc(N4CCC[C@H](N)C4)nn23)c(C#N)n1` [Example 123, 2-[(3S)-3-aminopiperidin-1-yl]-N-(3-cyano-1-methyl-1H-pyrazol-4-yl)pyrrolo[2,1-f][1,2,4]triazine-7-carboxamide trifluoroacetate] registered an IC50 of 1 nM.

As to `N[C@H]1CCCC[C@H]1Nc1ncc2ccc(C(=O)Nc3ccccc3C(F)(F)F)n2n1` [Example 27, 2-{[(1R,2S)-2-aminocyclohexyl]amino}-N-[2-(trifluoromethyl)phenyl]-pyrrolo[2,1-f][1,2,4]triazine-7-carboxamide trifluoroacetate], the IC50 was found to be 392 nM.

The molecule `N[C@@H]1[C@H](Nc2ncc3ccc(C(=O)Nc4cscc4C(F)F)n3n2)CCCC1(F)F` [Example 93, 2-{[(1R,2R)-2-amino-3,3-difluorocyclohexyl]amino}-N-[4-(difluoromethyl)thiophen-3-yl]pyrrolo[2,1-f][1,2,4]triazine-7-carboxamide trifluoroacetate] registered an IC50 of 298 nM.

`O=C(Nc1ccccc1Cl)c1ccc2cnc(N3C[C@@H]4CC[C@H]3CN4)nn12` (single isomer, unassigned) [Example 65, N-(2-chlorophenyl)-2-[(1S,4S)- or (1R,4R)-2,5-diazabicyclo[2.2.2]oct-2-yl]pyrrolo[2,1-f][1,2,4]triazine-7-carboxamide trifluoroacetate] registered an IC50 of 2060 nM.

With `Cn1cc(NC(=O)c2ccc3cnc(N[C@@H]4CCCNC4)nn23)c(C#N)n1` [Example 124, N-(3-cyano-1-methyl-1H-pyrazol-4-yl)-2-[(3R)-piperidin-3-ylamino]pyrrolo[2,1-f][1,2,4]triazine-7-carboxamide trifluoroacetate], the IC50 turned out to be 0.8 nM.

In the case of `N#Cc1sccc1NC(=O)c1ccc2cnc(N[C@@H]3CCCNC3)nn12` [Example 146, N-(2-cyanothiophen-3-yl)-2-[(3R)-piperidin-3-ylamino]pyrrolo[2,1-f][1,2,4]triazine-7-carboxamide trifluoroacetate], the IC50 amounted to 4 nM.

Turning to `O=C(Nc1ccccc1C(F)F)c1ccc2cnc(N3C[C@@H]4CC[C@H]3CN4)nn12` (single isomer, unassigned) [Example 61, 2-[(1S,4S)- or (1R,4R)-2,5-diazabicyclo[2.2.2]oct-2-yl]-N-[2-(difluoromethyl)phenyl]-pyrrolo[2,1-f][1,2,4]triazine-7-carboxamide trifluoroacetate], the IC50 stood at 10000 nM. Against the preceding molecule, the IC50 is about 2500-fold higher.

With `Cn1cc(NC(=O)c2ccc3cnc(N[C@@H]4CCCC[C@@H]4O)nn23)c(C(F)F)n1` [Example 17, N-[3-(difluoromethyl)-1-methyl-1H-pyrazol-4-yl]-2-{[(1R,2S)-2-hydroxycyclohexyl]amino}-pyrrolo[2,1-f][1,2,4]triazine-7-carboxamide trifluoroacetate], the IC50 was found to be 4 nM. Compared with the last molecule, the IC50 is about 2500-fold lower.

In the case of `N[C@@H]1[C@H](Nc2ncc3ccc(C(=O)Nc4ccsc4C(F)(F)F)n3n2)CCCC1(F)F` [Example 95, 2-{[(1R,2R)-2-amino-3,3-difluorocyclohexyl]amino}-N-[2-(trifluoromethyl)thiophen-3-yl]pyrrolo[2,1-f][1,2,4]triazine-7-carboxamide trifluoroacetate], half-maximal inhibition (IC50) required 4700 nM.

Consider `Cn1cc(NC(=O)c2ccc3cnc(N[C@@H]4CC(F)(F)CC[C@@H]4N)nn23)c(C(F)F)n1` (single isomer, unassigned) [Example 140, 2-{[(1S,2R)- or (1R,2S)-2-amino-5,5-difluorocyclohexyl]amino}-N-[3-(difluoromethyl)-1-methyl-1H-pyrazol-4-yl]pyrrolo[2,1-f][1,2,4]triazine-7-carboxamide], for which the IC50 is 3 nM.

`Cn1cc(NC(=O)c2ccc3cnc(N4C5CCC4CNC5)nn23)c(C#N)n1` [Example 111, N-(3-cyano-1-methyl-1H-pyrazol-4-yl)-2-(3,8-diazabicyclo[3.2.1]oct-8-yl)pyrrolo[2,1-f][1,2,4]triazine-7-carboxamide trifluoroacetate] returned an IC50 of 12 nM. Against the preceding molecule, the IC50 is about 4-fold higher.

As for `O=C(Nc1ccsc1Cl)c1ccc2cnc(N3C[C@@H]4CC[C@H]3CN4)nn12` (single isomer, unassigned) [Example 53, N-(2-chlorothiophen-3-yl)-2-[(1S,4S)- or (1R,4R)-2,5-diazabicyclo[2.2.2]oct-2-yl]pyrrolo[2,1-f][1,2,4]triazine-7-carboxamide trifluoroacetate], the IC50 worked out at 1640 nM. Compared with the last molecule, the IC50 is about 140-fold higher.

In turn, `Cn1cc(NC(=O)c2ccc3cnc(N4C[C@H]5CNC[C@@H]4C5)nn23)c(C(F)F)n1` (single isomer, unassigned) [Example 120, 2-[(1S,5R)- or (1R,5S)-3,6-diazabicyclo[3.2.1]oct-6-yl]-N-[3-(difluoromethyl)-1-methyl-1H-pyrazol-4-yl]pyrrolo[2,1-f][1,2,4]triazine-7-carboxamide] registered an IC50 of 15 nM.

Regarding `Cn1cc(NC(=O)c2ccc3cnc(N[C@@H]4CCCC(F)(F)[C@@H]4N)nn23)c(Br)n1` [Example 89, 2-{[(1R,2R)-2-amino-3,3-difluorocyclohexyl]amino}-N-(3-bromo-1-methyl-1H-pyrazol-4-yl)pyrrolo[2,1-f][1,2,4]triazine-7-carboxamide trifluoroacetate], half-maximal inhibition (IC50) was put at 373 nM.

Molecule `CCn1cc(NC(=O)c2ccc3cnc(N[C@@H]4CCCC[C@@H]4N)nn23)cn1` [Example 166, 2-{[(1R,2S)-2-Aminocyclohexyl]amino}-N-(1-ethyl-1H-pyrazol-4-yl)pyrrolo[2,1-f][1,2,4]triazine-7-carboxamide] registered an IC50 of 38 nM. This IC50 lies about 9.8-fold lower than the previous one.

As for `O=C(Nc1ccsc1C(F)(F)F)c1ccc2cnc(N3CCCNCC3)nn12` [Example 85, 2-(1,4-diazepan-1-yl)-N-[2-(trifluoromethyl)thiophen-3-yl]pyrrolo[2,1-f][1,2,4]triazine-7-carboxamide trifluoroacetate], the midpoint of inhibition, the IC50, lay at 2640 nM. This IC50 is about 69-fold higher than that of the molecule before.

Molecule `N#Cc1cscc1NC(=O)c1ccc2cnc(N[C@@H]3CCCC[C@@H]3O)nn12` [Example 142, N-(4-cyanothiophen-3-yl)-2-{[(1R,2S)-2-hydroxycyclohexyl]amino}-pyrrolo[2,1-f][1,2,4]triazine-7-carboxamide trifluoroacetate] came in with an IC50 of 1590 nM. This IC50 is about 1.7-fold lower than that of the molecule before.

As for `N#Cc1ccccc1NC(=O)c1ccc2cnc(N[C@@H]3CCCCNC3)nn12` (single isomer, unassigned) [Example 73, 2-[(3S)- or (3R)-azepan-3-ylamino]-N-(2-cyanophenyl)pyrrolo[2,1-f][1,2,4]triazine-7-carboxamide trifluoroacetate], half-maximal inhibition (IC50) required 27 nM.

`Cn1cc(NC(=O)c2ccc3cnc(N4C[C@H]5CN[C@H](C5)C4)nn23)c(C(F)(F)F)n1` (single isomer, unassigned) [Example 101, 2-[(1S,5S)- or (1R,5R)-3,6-diazabicyclo[3.2.1]oct-3-yl]-N-[1-methyl-3-(trifluoromethyl)-1H-pyrazol-4-yl]pyrrolo[2,1-f][1,2,4]triazine-7-carboxamide] gave an IC50 of 277 nM.

Take `Cn1cc(NC(=O)c2ccc3cnc(N4CCCNCC4)nn23)c(Br)n1` [Example 67, N-(3-bromo-1-methyl-1H-pyrazol-4-yl)-2-(1,4-diazepan-1-yl)pyrrolo[2,1-f][1,2,4]triazine-7-carboxamide trifluoroacetate]: the IC50 is 39 nM.

As to `Cn1cc(NC(=O)c2ccc3cnc(N4C5CCC4CNC5)nn23)c(C(F)F)n1` [Example 121, 2-(3,8-diazabicyclo[3.2.1]oct-8-yl)-N-[3-(difluoromethyl)-1-methyl-1H-pyrazol-4-yl]pyrrolo[2,1-f][1,2,4]triazine-7-carboxamide trifluoroacetate], inhibition was half-maximal at 0.5 nM (IC50).

On to `Cn1cc(NC(=O)c2ccc3cnc(N4C[C@H](N)C[C@@H](F)C4)nn23)c(C(F)(F)F)n1` [Example 149, 2-[(3R,5R)-3-amino-5-fluoropiperidin-1-yl]-N-[1-methyl-3-(trifluoromethyl)-1H-pyrazol-4-yl]pyrrolo[2,1-f][1,2,4]triazine-7-carboxamide trifluoroacetate], for which the 50% inhibitory concentration (IC50) is 0.8 nM. Compared with the last molecule, the IC50 is about 1.6-fold higher.

`Cn1cc(NC(=O)c2ccc3cnc(N[C@@H]4CCC(F)(F)C[C@@H]4N)nn23)c(C(F)(F)F)n1` (single isomer, unassigned) [Example 132, 2-{[(1S,2R)- or (1R,2S)-2-amino-4,4-difluorocyclohexyl]amino}-N-[1-methyl-3-(trifluoromethyl)-1H-pyrazol-4-yl]pyrrolo[2,1-f][1,2,4]triazine-7-carboxamide trifluoroacetate]: the IC50 was 655 nM.

`Cn1cc(NC(=O)c2ccc3cnc(N4C[C@@H]5CNC[C@H]4C5)nn23)c(C(F)F)n1` (single isomer, unassigned) [Example 119, 2-[(1S,5R)- or (1R,5S)-3,6-diazabicyclo[3.2.1]oct-6-yl]-N-[3-(difluoromethyl)-1-methyl-1H-pyrazol-4-yl]pyrrolo[2,1-f][1,2,4]triazine-7-carboxamide] gave an IC50 of 2 nM.

Broadly, the IC50 is the point on the concentration scale where inhibition reaches its midpoint. Higher therefore signals weaker potency in that assay.
